Assay results as given in US20240262795A1, “PYRAZINE COMPOUNDS AS INHIBITORS OF FLT3” (Biomea Fusion, Inc., priority 2021, published 2024).
Changes are numbered by the printed parent chain.

Key:
[1] = target: T1, Ba/F3 cell lines stably expressing human FLT3-ITD (Homo sapiens, UniProt P36888, cells depend on it, form not given); experiment: FLT3 mutant assay, cell viability, Ba/F3-FLT3-ITD; type: cell-based, mouse; settings: IC50 (3 days), CellTiter-Glo; read-out: Ba/F3-FLT3-ITD Relative IC50
T1 sequence (P36888 1-993): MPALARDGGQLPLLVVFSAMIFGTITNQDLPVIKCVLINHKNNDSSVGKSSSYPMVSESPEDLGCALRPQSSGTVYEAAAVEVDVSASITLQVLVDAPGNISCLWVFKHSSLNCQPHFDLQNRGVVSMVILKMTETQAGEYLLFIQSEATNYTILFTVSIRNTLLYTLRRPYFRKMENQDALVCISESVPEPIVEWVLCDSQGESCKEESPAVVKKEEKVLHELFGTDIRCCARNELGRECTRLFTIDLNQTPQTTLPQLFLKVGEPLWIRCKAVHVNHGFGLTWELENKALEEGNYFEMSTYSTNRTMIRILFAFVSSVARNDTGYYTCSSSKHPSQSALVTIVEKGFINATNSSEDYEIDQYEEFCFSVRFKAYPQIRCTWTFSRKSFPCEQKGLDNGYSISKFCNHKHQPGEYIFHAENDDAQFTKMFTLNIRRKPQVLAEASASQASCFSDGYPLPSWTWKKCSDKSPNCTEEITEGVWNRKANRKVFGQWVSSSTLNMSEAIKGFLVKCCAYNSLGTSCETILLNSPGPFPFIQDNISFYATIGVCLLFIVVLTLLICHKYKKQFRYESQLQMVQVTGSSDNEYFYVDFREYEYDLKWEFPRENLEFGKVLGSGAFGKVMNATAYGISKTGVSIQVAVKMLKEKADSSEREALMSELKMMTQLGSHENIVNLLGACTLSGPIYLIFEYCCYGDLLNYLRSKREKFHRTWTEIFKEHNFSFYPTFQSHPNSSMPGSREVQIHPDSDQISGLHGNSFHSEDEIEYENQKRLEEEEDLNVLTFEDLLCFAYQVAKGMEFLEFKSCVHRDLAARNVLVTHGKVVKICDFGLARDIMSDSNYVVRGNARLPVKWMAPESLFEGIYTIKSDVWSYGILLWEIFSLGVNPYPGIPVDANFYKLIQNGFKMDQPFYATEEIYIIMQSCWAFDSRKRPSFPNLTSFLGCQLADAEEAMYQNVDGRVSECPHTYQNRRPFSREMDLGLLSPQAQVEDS
Method: (§1) Activity of compounds on FLT3 activating mutations were assessed using Ba/F3 cell lines (mouse pro-B cell line) stably expressing human FLT3-ITD, FLT3-ITD-D835Y or FLT3-ITD-F691L. […] The supernatant collected were concentrated with PEG8000 and used to infect Ba/F3 cells at 1-5 MOI in serum-free media with polybrene. Infected Ba/F3 cells were selected in presence of puromycin, and surviving cells verified by sequencing and/or protein detection assay. Constitutive expression of the activating kinase transforms the Ba/F3 cells into IL-3-independent growth allowing them to be cultured in the absence of IL-3. […] For use in compound testing, cells in exponential growth phase were harvested, counted, and resuspended at the required cell density. Cell viability assays were performed in 96-well assay plates and 90 μL of cell suspension seeded per well. Serial dilutions of the test compounds and assay controls and were freshly prepared for the assay. Nine-point 3× serial dilutions were prepared in 100% DMSO (400× stock) and subsequently diluted in cell culture media to obtain 10× stocks. Ten microliters of the 10× stock serial dilutions were added to the appropriate wells (triplicate wells per condition) in the assay plate. […] Assay plates were incubated for 3 days in at 37° C. in a humidified incubator with 5% CO2.
(§2) Inhibition rate (IR) of the tested compounds was determined by the following formula: IR (%)=(1−(RLU compound−RLU blank)/(RLU control−RLU blank))*100%. The inhibitions of different dose of compound were calculated in Excel file, and the dose responses were analysed using GraphPad Prism to evaluate related parameters, such as Bottom, Top and IC50. For the IC50 analysis by GraphPad Prism, the equation below was used to fit curve: Y=Bottom+(Top−Bottom)/(1+10^((LogIC50−X)*HillSlope))

[2] = target: T2, Ba/F3 cell lines stably expressing human FLT3-ITD-F691L (Homo sapiens, UniProt P36888, F691L, cells depend on it, form not given); experiment: FLT3 mutant assay, cell viability, Ba/F3-FLT3-ITD-F691L; type: cell-based, mouse; settings: IC50 (3 days), CellTiter-Glo; read-out: Ba/F3-FLT3-ITD-F691L Relative IC50
T2 construct: Ba/F3-FLT3-ITD-F691L Relative IC50
T2 sequence (P36888 1-993 F691L): T1 sequence (P36888 1-993) with F691L
Method: as §1, §2

Row | SMILES | GI50 [1] | GI50 [2]
1 | CCc1nc(Nc2cccc([C@@H](C)CNC(=O)CN(C)C(=O)/C=C/CN3CCC3)c2)c(C(N)=O)nc1CC [Compound 508, (R, E)-3-((3-(1-(2-(4-(azetidin-1-yl)-N-methylbut-2-enamido)acetamido)propan-2-yl)phenyl)amino)-5,6-diethylpyrazine-2-carboxamide] | 1 to 10 nM | 1 to 10 nM
2 | CCc1nc(C(N)=O)c(Nc2cccc([C@@H](C)CNC(=O)CN(C)C(=O)/C=C/CN3CCC3)c2)nc1C1CC1 [Compound 506, (R,E)-3-((3-(1-(2-(4-(azetidin-1-yl)-N-methylbut-2-enamido)acetamido)propan-2-yl)phenyl)amino)-5-cyclopropyl-6-ethylpyrazine-2-carboxamide] | 1 to 10 nM | 1 to 10 nM
3 | CCOc1nc(Nc2cccc(CCNC(=O)CN(C)C(=O)/C=C/CN3CCC3)c2)c(C(N)=O)nc1CC [Compound 602, (E)-3-((3-(2-(2-(4-(azetidin-1-yl)-N-methylbut-2-enamido)acetamido)ethyl)phenyl)amino)-5-ethoxy-6-ethylpyrazine-2-carboxamide] | 1 to 10 nM | 1 to 10 nM
4 | CCc1nc(C(N)=O)c(Nc2cccc(CCNC(=O)CN(C)C(=O)/C=C/CN(C)C)c2)nc1N(C)CC [Compound 252, (E)-3-((3-(2-(2-(4-(dimethylamino)-N-methylbut-2-enamido)acetamido)ethyl)phenyl)amino)-6-ethyl-5-(ethyl (methyl)amino) pyrazine-2-carboxamide] | < 1 nM | 1 to 10 nM
5 | CCc1nc(C(N)=O)c(Nc2cc(F)cc(CCNC(=O)CN(C)C(=O)/C=C/CN3CCC3)c2)nc1C1CC1 [Compound 516, (E)-3-((3-(2-(2-(4-(azetidin-1-yl)-N-methylbut-2-enamido)acetamido)ethyl)-5-fluorophenyl)amino)-5-cyclopropyl-6-ethylpyrazine-2-carboxamide] | 1 to 10 nM | 10 to 100 nM
6 | Cc1nc(C(N)=O)c(Nc2cccc(CCNC(=O)[C@H](C)N(C)C(=O)/C=C/CN(C)C)c2)nc1N(C)C(C)C [Compound 232, (S, E)-3-((3-(2-(2-(4-(dimethylamino)-N-methylbut-2-enamido)propanamido)ethyl)phenyl)amino)-5-(isopropyl (methyl)amino)-6-methylpyrazine-2-carboxamide] | 1 to 10 nM | 1 to 10 nM
7 | CCc1nc(C(N)=O)c(Nc2ccnc(CCNC(=O)[C@H](C)N(C)C(=O)/C=C/CN(C)C)c2)nc1N(C)C(C)C [Compound 605, (S, E)-3-((2-(2-(2-(4-(dimethylamino)-N-methylbut-2-enamido)propanamido)ethyl)pyridin-4-yl)amino)-6-ethyl-5-(isopropyl (methyl)amino) pyrazine-2-carboxamide] | 1 to 10 nM | 10 to 100 nM
8 | CCc1nc(C(N)=O)c(Nc2cccc(CCNC(=O)CN(C)C(=O)/C=C/CN3CCC3)c2)nc1N(C)CC [Compound 516A, (E)-3-((3-(2-(2-(4-(azetidin-1-yl)-N-methylbut-2-enamido)acetamido)ethyl)phenyl)amino)-6-ethyl-5-(ethyl(methyl)amino) pyrazine-2-carboxamide] | 1 to 10 nM | 1 to 10 nM
9 | CCc1nc(C(N)=O)c(Nc2cccc(CCNC(=O)[C@H](C)N(C)C(=O)/C=C/CN(C)C)c2)nc1N(C)C(C)C [Compound 204, (S,E)-3-((3-(2-(2-(4-(dimethylamino)-N-methylbut-2-enamido)propanamido)ethyl)phenyl)amino)-6-ethyl-5-(isopropyl(methyl)amino)pyrazine-2-carboxamide] | 1 to 10 nM | 1 to 10 nM
10 | CCc1nc(C(N)=O)c(Nc2ccnc(CCNC(=O)[C@H](C)N(C)C(=O)/C=C/CN(C)C)c2)nc1C1CC1 [Compound 310, (S,E)-5-cyclopropyl-3-((2-(2-(2-(4-(dimethylamino)-N-methylbut-2-enamido)propanamido)ethyl)pyridin-4-yl)amino)-6-ethylpyrazine-2-carboxamide] | 1 to 10 nM | 10 to 100 nM
11 | CCc1nc(C(N)=O)c(Nc2cccc(CCNC(=O)[C@H](C)N(C)C(=O)/C=C/CNC)c2)nc1N(C)C(C)C [Compound 307, (S,E)-6-ethyl-5-(isopropyl(methyl)amino)-3-((3-(2-(2-(N-methyl-4-(methylamino)but-2-enamido)propanamido)ethyl)phenyl)amino)pyrazine-2-carboxamide] | 1 to 10 nM | 10 to 100 nM
12 | CCc1nc(C(N)=O)c(Nc2cccc([C@@H](C)CNC(=O)CN(C)C(=O)/C=C/CN(C)C)c2)nc1C1CC1 [Compound 504, (R,E)-5-cyclopropyl-3-((3-(1-(2-(4-(dimethylamino)-N-methylbut-2-enamido)acetamido)propan-2-yl)phenyl)amino)-6-ethylpyrazine-2-carboxamide] | 1 to 10 nM | 1 to 10 nM
13 | CCc1nc(C(N)=O)c(Nc2cccc(CCNC(=O)CN(C)C(=O)/C=C/CN(C)C)c2)nc1C1CC1 [Compound 219, (E)-5-cyclopropyl-3-((3-(2-(2-(4-(dimethylamino)-N-methylbut-2-enamido)acetamido)ethyl)phenyl)amino)-6-ethylpyrazine-2-carboxamide] | 1 to 10 nM | 1 to 10 nM
14 | CCCc1nc(Nc2cccc([C@@H](C)CNC(=O)CN(C)C(=O)/C=C/CN3CCC3)c2)c(C(N)=O)nc1CC [Compound 507, (R,E)-3-((3-(1-(2-(4-(azetidin-1-yl)-N-methylbut-2-enamido)acetamido)propan-2-yl)phenyl)amino)-6-ethyl-5-propylpyrazine-2-carboxamide] | 1 to 10 nM | 1 to 10 nM
15 | CCc1nc(C(N)=O)c(Nc2ccc(N3CCC(N4CCN(C)CC4)CC3)c(OC)c2)nc1NC1CCOCC1 [Gilteritinib, gilteritinib, reference compound] | – | 10 to 100 nM
